Reference: patent publication US10329309B2, “3-(3H-imidazo[4,5-B]pyridin-2-yl)-1H-pyrazolo[4,3-B]pyridines and therapeutic uses thereof” (Samumed, LLC, priority 2015, dated 2019)

How the values were obtained:
[1] = system: primary human mesenchymal stem cells (hMSCs); experiment: Induction of chondrogenesis in primary human mesenchymal stem cells (nodule imaging, Rhodamine B/Nile Red); type: cell-based; conditions: hMSC chondrogenesis; for Emax: TGF-β3 as positive control, read-out: Max. Activity as % TGF-β3 activity; for EC50: concentration required to induce 50% levels of chondrogenesis vs TGF-β3, read-out: Conc (nM) of 50% TGF-β3 activity
Protocol: Representative compounds were screened using primary human mesenchymal stem cells (hMSCs) to determine their ability to induce chondrogenesis (process by which cartilage is developed).
Primary human mesenchymal stem cells (hMSCs) were purchased from Lonza (Walkersville, Md.) and expanded in Mesenchymal Stem Cell Growth Media (Lonza). Cells between passage 3 and 6 were used for the experiments.
Each compound was dissolved in DMSO as a 10 mM stock and used to prepare compound source plates. For the 96 well assay, serial dilution (1:3, 6-point dose-response curves from 2700 nM to 10 nM) and compound transfer was performed using the ECHO 550 (Labcyte, Sunnyvale, Calif.) into 96-well clear bottom assay plates (Greiner Bio-One) with appropriate DMSO backfill for a final DMSO concentration of 0.03%. hMSCs were plated at 20,000 cells/well in 250 μL/well Incomplete Chondrogenic Induction Medium (Lonza; DMEM, dexamethasone, ascorbate, insulin-transferrin-selenium [ITS supplement], gentamycin-amphotericin [GA-1000], sodium pyruvate, proline and L-glutamine). TGF-−3 (10 ng/mL) was used as a positive control for differentiation while negative control wells were treated with 75 nL DMSO for normalization and calculating EC50 values. For the 384 well assay, serial dilution (1:3, 8-point dose-response curves from 5000 nM to 2.2 nM) and compound transfer was performed using the ECHO 550 (Labcyte, Sunnyvale, Calif.) into 384-well clear bottom assay plates (Greiner Bio-One) with appropriate DMSO backfill for a final DMSO concentration of 0.03%. hMSCs were plated at 8,000 cells/well in 80 μL/well Incomplete Chondrogenic Induction Medium (Lonza; DMEM, dexamethasone, ascorbate, insulin-transferrin-selenium [ITS supplement], gentamycin-amphotericin [GA-1000], sodium pyruvate, proline and L-glutamine). TGF-β3 (10 ng/mL) was used as a positive control for differentiation while negative control wells were treated with 25 nL DMSO for normalization and calculating EC50 values. Cells were incubated at 37° C. and 5% CO2 for 6 days. To image chondrogenic nodules, the cells were fixed using 4% formaldehyde (Electron Microscopy Sciences), and stained with 2 μg/mL Rhodamine B (Sigma-Aldrich) and 20 μM Nile Red (Sigma-Aldrich) [Johnson K., et. al, A Stem Cell-Based Approach to Cartilage Repair, Science, (2012), 336(6082), 717-721]. The nodules imaged (25 images per well for 96 well plates and 9 images per well for 384 well plates at 10× magnification) by excitation at 531 nm and emission at 625 nm and quantified using the CellInsight CX5 (Thermo Scientific). Area of nodules in each well was normalized to the average of 3 DMSO treated wells on the same plate using Excel (Microsoft Inc.). The normalized averages (fold change over DMSO) of 2 or 3 replicate wells for each compound concentration were calculated. Due to solubility limitations of some of the compounds, curve fitting was incomplete leading to inaccurate EC50 determinations.
Using TGF-β3 as a positive control, the concentration of representative compounds required to induce 50% levels of chondrogenesis is reported. In addition, the maximum activity of each compound and the respective dose that each compound reached maximum chondrogenesis activity is reported.

[2] = system: primary human fibroblasts derived from IPF patients (LL29 cells), α-smooth muscle actin (αSMA); experiment: Inhibition of the fibrotic process: TGF-β1-treated primary human fibroblasts from IPF patients, αSMA staining; type: cell-based; conditions: Fibroblast, 96 h, 4 days; for EC50: LL29 fibroblasts from IPF patients, TGF-β1 20 ng/mL, inhibition of fibrotic process; for inhibition at 10 µM: LL29 fibroblasts, TGF-β1 treated, read-out: percent inhibition at 10 μM (given for EC50 of >10 μM)
How it was run: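 Read-out: fraction of αSMA-positive cells by high-content imaging, SYTOX-stained dead cells excluded, normalized to TGF-β1/DMSO wells. Cells got compound (10 μM–[…], 11 points) plus TGF-β1 20 ng/mL for 4 days. EC50 from triplicate curves; above 10 μM, % inhibition at 10 μM given.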

EC50 [1] [nM] | SMILES | Emax [1] [%] | EC50 [2] [nM] | inhibition at 10 µM [2] [%]
900 | CN(C)c1cncc(-c2ccc3[nH]nc(-c4nc5c(-c6cccs6)ccnc5[nH]4)c3n2)c1 [Compound 343, N,N-dimethyl-5-(3-(7-(thiophen-2-yl)-3H-imidazo[4,5-b]pyridin-2-yl)-1H-pyrazolo [4,3-b]pyridin-5-yl)pyridin-3-amine] | 57 | 1180 | 
 | CN(C)c1cncc(-c2ccc3[nH]nc(-c4nc5c(N6CCCCC6)ccnc5[nH]4)c3n2)c1 [Compound 175, N,N-dimethyl-5-(3-(7-(piperidin-1-yl)-3H-imidazo[4,5-b]pyridin-2-yl)-1H-pyrazolo [4,3-b]pyridin-5-yl)pyridin-3-amine] | 42 | 2530 | 
30 | Fc1ccc(-c2ccnc3[nH]c(-c4n[nH]c5ccc(-c6cncnc6)nc45)nc23)cc1 [Compound 55, 3-(7-(4-Fluorophenyl)-3H-imidazo[4,5-b]pyridin-2-yl)-5-(pyrimidin-5-yl)-1H-pyrazolo[4,3-b]pyridine] | 99 | 63 | 
10 | CC(C)C(=O)Nc1cncc(-c2ccc3[nH]nc(-c4nc5c(-c6ccccc6F)ccnc5[nH]4)c3n2)c1 [Compound 65, N-(5-(3-(7-(2-fluorophenyl)-3H-imidazo[4,5-b]pyridin-2-yl)-1H-pyrazolo [4,3-b]pyridin-5-yl)pyridin-3-yl)isobutyramide] | 197 | > 10000 | 0
10 | O=C(Cc1ccccc1)Nc1cncc(-c2ccc3[nH]nc(-c4nc5c(-c6ccncc6)ccnc5[nH]4)c3n2)c1 [Compound 122, 2-phenyl-N-(5-(3-(7-(pyridin-4-yl)-3H-imidazo[4,5-b]pyridin-2-yl)-1H-pyrazolo[4,3-b]pyridin-5-yl)pyridin-3-yl)acetamide] | 63 | > 10000 | 0
21 | CCNCc1cncc(-c2ccc3[nH]nc(-c4nc5c(-c6cc(F)cc(NCCN(C)C)c6)ccnc5[nH]4)c3n2)c1 [Compound 454, N^1-(3-(2-(5-(5-((ethylamino)methyl)pyridin-3-yl)-1H-pyrazolo[4,3-b]pyridin-3-yl)-3H-imidazo[4,5-b]pyridin-7-yl)-5-fluorophenyl)-N^2,N^2-dimethylethane-1,2-diamine] | 149 | 3510 | 
100 | Cc1ccncc1-c1ccc2[nH]nc(-c3nc4c(-c5ccncc5)ccnc4[nH]3)c2n1 [Compound 117, 5-(4-methylpyridin-3-yl)-3-(7-(pyridin-4-yl)-3H-imidazo[4,5-b]pyridin-2-yl)-1H-pyrazolo[4,3-b]pyridine] | 147 | > 10000 | 2.8
 | CCC(=O)Nc1cncc(-c2ccc3[nH]nc(-c4nc5c(-c6cccc(F)c6)ccnc5[nH]4)c3n2)c1 [Compound 1, N-(5-(3-(7-(3-fluorophenyl)-3H-imidazo[4,5-b]pyridin-2-yl)-1H-pyrazolo [4,3-b]pyridin-5-yl)pyridin-3-yl)propionamide] | 29 | > 10000 | 3
 | Cn1cc(-c2ccc3[nH]nc(-c4nc5c(-c6cccc(F)c6)ccnc5[nH]4)c3n2)cn1 [Compound 508, 3-(7-(3-fluorophenyl)-3H-imidazo[4,5-b]pyridin-2-yl)-5-(1-methyl-1H-pyrazol-4-yl)-1H-pyrazolo[4,3-b]pyridine] | 43 | > 10000 | 8.1
10 | O=C(Nc1cncc(-c2ccc3[nH]nc(-c4nc5c(-c6ccncc6)ccnc5[nH]4)c3n2)c1)C1CCCCC1 [Compound 135, N-(5-(3-(7-(pyridin-4-yl)-3H-imidazo[4,5-b]pyridin-2-yl)-1H-pyrazolo[4,3-b]pyridin-5-yl)pyridin-3-yl)cyclohexanecarboxamide] | 69 | > 10000 | 0
 | CCCC(=O)Nc1cncc(-c2ccc3[nH]nc(-c4nc5c(-c6ccncc6)ccnc5[nH]4)c3n2)c1 [Compound 129, N-(5-(3-(7-(pyridin-4-yl)-3H-imidazo[4,5-b]pyridin-2-yl)-1H-pyrazolo[4,3-b]pyridin-5-yl)pyridin-3-yl)butyramide] | 50 | > 10000 | 0
 | CCNCc1cncc(-c2ccc3[nH]nc(-c4nc5c(-c6ccccn6)ccnc5[nH]4)c3n2)c1 [Compound 146, N-((5-(3-(7-(pyridin-2-yl)-3H-imidazo[4,5-b]pyridin-2-yl)-1H-pyrazolo[4,3-b]pyridin-5-yl)pyridin-3-yl)methyl)ethanamine] | 28 | 1130 | 
 | CCC(=O)Nc1cncc(-c2ccc3[nH]nc(-c4nc5c(-c6ccsc6)ccnc5[nH]4)c3n2)c1 [Compound 281, N-(5-(3-(7-(thiophen-3-yl)-3H-imidazo[4,5-b]pyridin-2-yl)-1H-pyrazolo[4,3-b]pyridin-5-yl)pyridin-3-yl)propionamide] | 38 | > 10000 | 21.4
900 | CC(C)C(=O)Nc1cncc(-c2ccc3[nH]nc(-c4nc5c(N6CCN(C)CC6)ccnc5[nH]4)c3n2)c1 [Compound 233, N-(5-(3-(7-(4-methylpiperazin-1-yl)-3H-imidazo[4,5-b]pyridin-2-yl)-1H-pyrazolo [4,3-b]pyridin-5-yl)pyridin-3-yl)isobutyramide] | 62 | 4840 | 
10 | c1cncc(-c2ccc3[nH]nc(-c4nc5cccnc5[nH]4)c3n2)c1 [Compound 256, 3-(3H-imidazo[4,5-b]pyridin-2-yl)-5-(pyridin-3-yl)-1H-pyrazolo[4,3-b]pyridine] | 74 | > 10000 | 10.4
 | CCC(=O)Nc1cncc(-c2ccc3[nH]nc(-c4nc5c(N6CCCCC6)ccnc5[nH]4)c3n2)c1 [Compound 169, N-(5-(3-(7-(piperidin-1-yl)-3H-imidazo[4,5-b]pyridin-2-yl)-1H-pyrazolo[4,3-b]pyridin-5-yl)pyridin-3-yl)propionamide] | 38 | 5300 | 
10 | Cc1cn(-c2ccnc3[nH]c(-c4n[nH]c5ccc(-c6cncc(NC(=O)C(C)(C)C)c6)nc45)nc23)cn1 [Compound 204, N-(5-(3-(7-(4-methyl-1H-imidazol-1-yl)-3H-imidazo[4,5-b]pyridin-2-yl)-1H-pyrazolo[4,3-b]pyridin-5-yl)pyridin-3-yl)pivalamide] | 70 | > 10000 | 38.8
10 | Nc1cncc(-c2ccc3[nH]nc(-c4nc5c(-c6ccccc6F)ccnc5[nH]4)c3n2)c1 [Compound 59, 5-(3-(7-(2-fluorophenyl)-3H-imidazo[4,5-b]pyridin-2-yl)-1H-pyrazolo[4,3-b]pyridin-5-yl)pyridin-3-amine] | 127 | 2410 | 
100 | CCCCC(=O)Nc1cncc(-c2ccc3[nH]nc(-c4nc5c(-c6ccccn6)ccnc5[nH]4)c3n2)c1 [Compound 159, N-(5-(3-(7-(pyridin-2-yl)-3H-imidazo[4,5-b]pyridin-2-yl)-1H-pyrazolo[4,3-b]pyridin-5-yl)pyridin-3-yl)pentanamide] | 60 | > 10000 | 15.4
